Source: PubChem BioAssay AID1549 (Sanford-Burnham Center for Chemical Genomics, 2009)
Activity calls are given as the source filed them. How the calls were made is not given here.

Molecular target: Influenza A virus M2 proton channel (A/TW/4845/1999 H1N1)
Experiment: NMR binding screen, influenza A virus M2 proton channel, Kd (AID 1549)
Conditions: M2 protein

Row | Compound | Kd
1 | Cc1nc2sc3c(c2c(=N)n1N)CC(C)(C)OC3 | > 4 mM (inactive)
2 | O=C(c1cccnc1Cl)N1CCOCC1 | > 4 mM (inactive)
3 | Cc1c(O)c(O)cc2c1CC=C1[C@@]2(C)CC[C@@]2(C)C3C[C@](C)(C(=O)O)CC[C@]3(C)CC[C@]12C (some centres undefined) | > 4 mM (inactive)
4 | O=C1NC(=S)NC(=O)C1=Cc1cccs1 | > 4 mM (inactive)
5 | NC(=O)Cn1cnc2ccccc21 | > 4 mM (inactive)
6 | Cn1nnc2cc(C(=O)NC3CCCCC3)ccc21 | > 4 mM (inactive)
7 | Nc1nc(SCc2ccccc2)ns1 | > 4 mM (inactive)
8 | c1ccn(Cc2ccncc2)c1 | > 4 mM (inactive)
9 | Cc1nnc(Nc2ccc(S(N)(=O)=O)cc2)[nH]c1=O | > 4 mM (inactive)
10 | Cc1cc(C)n(-c2ccc(Cl)nn2)n1 | > 4 mM (inactive)
11 | Nc1ncnc2nc[nH]c12 | > 4 mM (inactive)
12 | COc1nc(C)ccc1-c1noc(-c2ccncc2)n1 | > 4 mM (inactive)
13 | Cn1c(=O)c2[nH]cnc2n(-c2ccccc2)c1=O | > 4 mM (inactive)
14 | Cc1c(CO)cnn1-c1ccccc1 | > 4 mM (inactive)
15 | Cc1c(C)[n+](=O)c(-c2cccs2)c(C)n1[O-] | > 4 mM (inactive)
16 | Nc1c(Nc2ccccc2)c2ccccc2oc1=O | > 4 mM (inactive)
17 | COCCn1c(N)nc2c1c(=O)[nH]c(=O)n2C | > 4 mM (inactive)
18 | CS(=O)(=O)Nc1ccc(C(=O)N2CCCCC2)cc1 | > 4 mM (inactive)
19 | Cc1ccc(C(=O)N2CCC(C(=O)O)CC2)cc1 | > 4 mM (inactive)
20 | Cc1cc(NC(=O)CS(=O)(=O)c2ccccc2)no1 | > 4 mM (inactive)
21 | NC(=O)CN1CC(=O)NC(=O)C1 | > 4 mM (inactive)
22 | O=C1CCNc2ccccc2N1 | > 4 mM (inactive)
23 | CC1(C)C[C@@H]2C(=O)CC[C@H]3O[C@]3(C)CC[C@H]21 | > 4 mM (inactive)

Row | Compound | Kd
24 | CC(=O)Nc1c(C)n(C)n(-c2ccccc2)c1=O | > 4 mM (inactive)
25 | NS(=O)(=O)c1ccc(NC(=O)/C=C\C(=O)O)cc1 | > 4 mM (inactive)
26 | CC(C)Oc1ccc(C2CC(=O)NNC2=O)cc1 (centres undefined) | > 4 mM (inactive)
27 | COc1cnn(-c2ccccc2)c(=O)c1N(C)C | > 4 mM (inactive)
28 | CC(=O)n1nc(-c2cccnc2)nc1N | > 4 mM (inactive)
29 | CC1(O)CC2C(CC1O)C2(C)C (centres undefined) | > 4 mM (inactive)
30 | O=C(O)CCC(=O)Nc1ccccc1F | > 4 mM (inactive)
31 | CNC(=O)C1CCCN(S(C)(=O)=O)C1 (centres undefined) | > 4 mM (inactive)
32 | COc1cc(C)c(Cl)cc1S(=O)(=O)N(C)C | > 4 mM (inactive)
33 | O=C(O)c1ccc2ncccc2c1 | > 4 mM (inactive)
34 | Nc1nc(-c2nc3ccccc3[nH]2)cs1 | > 4 mM (inactive)
35 | COc1cc(S(=O)(=O)Nc2cccnc2)ccc1F | > 4 mM (inactive)
36 | CC1(C)Cc2cccc(C(=O)O)c2O1 | > 4 mM (inactive)
37 | CN1CCC(N2CCOCC2)CC1 | > 4 mM (inactive)
38 | OCC1COc2ccccc2O1 (centres undefined) | > 4 mM (inactive)
39 | NC(=O)C1CCN(C(=O)c2ccco2)CC1 | > 4 mM (inactive)
40 | CN(C)C(=O)CSc1cccc2cccnc12 | > 4 mM (inactive)
41 | O=C(c1ccco1)N1CCCN(C(=O)c2ccco2)CC1 | > 4 mM (inactive)
42 | Cn1cnc2ccc([N+](=O)[O-])cc2c1=O | > 4 mM (inactive)
43 | S=c1nc[nH]c2c1cnn2-c1ccccc1 | > 4 mM (inactive)
44 | NC(=O)c1cccc(N2C(=O)C=CC2=O)c1 | > 4 mM (inactive)
45 | O=C(O)[C@H](O)[C@@](O)(Cc1ccc(O)cc1)C(=O)O | > 4 mM (inactive)
46 | CCn1c2ccccc2c2nn(C)c(=N)nc21 | > 4 mM (inactive)

Row | Compound | Kd
47 | Nc1cc(C(=O)O)ccc1N1CCCCCC1 | > 4 mM (inactive)
48 | COc1ccc(C2CC(=O)NN2)cc1OC1CCCC1 (centres undefined) | > 4 mM (inactive)
49 | O=C1OCCC1Sc1nc2ccccc2c(=O)[nH]1 (centres undefined) | > 4 mM (inactive)
50 | CNC(C)[C@H](O)c1ccccc1 (some centres undefined) | > 4 mM (inactive)
51 | CC(C)NC(=O)c1cc(=O)n(C)c(=O)n1C | > 4 mM (inactive)
52 | Nc1nnc(-c2ccncc2)s1 | > 4 mM (inactive)
53 | Nc1cccc(NC(=O)c2cccs2)c1 | > 4 mM (inactive)
54 | O=C(O)C1CC(=O)N(Cc2ccc(F)cc2)C1 (centres undefined) | > 4 mM (inactive)
55 | CC(C)=CCc1c2c(c3occ(-c4ccc(O)cc4)c(=O)c3c1O)C=CC(C)(C)O2 | > 4 mM (inactive)
56 | Cc1noc(C)c1C(=O)Nc1ccc2c(c1)CCC2 | > 4 mM (inactive)
57 | S=C(c1cccnc1)N1CCOCC1 | > 4 mM (inactive)
58 | C[C@@H]1CC[C@@]2(OC1)OC1C(O)C3C4CC[C@H]5C[C@H](O[C@@H]6O[C@H](CO)[C@H](O[C@@H]7O[C@H](CO)[C@@H](O)[C@H](O[C@@H]8OC[C@@H](O)[C@H](O)[C@H]8O)[C@H]7O[C@@H]7O[C@H](CO)[C@H](O)[C@H](O[C@@H]8O[C@H](CO)[C@@H](O)[C@H](O)[C@H]8O)[C@H]7O)[C@H](O)[C@H]6O)[C@H](O)C[C@]5(C)C4CC[C@]3(C)C1[C@@H]2C (some centres undefined) | > 4 mM (inactive)
59 | CC1(C)C2CC(=O)[C@]3(C)C(CC[C@@]4(C)[C@H](c5ccoc5)OC(=O)C5OC543)[C@@]2(C)[C@@H](O)C[C@H]1O (some centres undefined) | > 4 mM (inactive)
60 | Cc1c(CCO)c(=O)n2c([nH]c3ccccc32)c1C#N | > 4 mM (inactive)
61 | CCSc1nc(C)c(CC)c(C)c1C(N)=O | > 4 mM (inactive)
62 | Cc1ccc(/C=C2/C(=O)N=C(N)N2C)s1 | > 4 mM (inactive)
63 | CCC(C)C(=O)O[C@@H]1C[C@@]2(C)[C@H](c3ccoc3)OC(=O)CC23OC2(C)O[C@]14[C@]1(C)[C@@H](CC(=O)OC)C5(C)CC1(O)[C@](O)(C5OC(=O)C1(C)OC1C)[C@@H](OC(C)=O)[C@]34O2 (some centres undefined) | > 4 mM (inactive)
64 | NC(=O)c1c[nH]c2ccccc12 | > 4 mM (inactive)
65 | C/C1=C\CCC(=O)C2CC(C)(C)C2CC1 (centres undefined) | > 4 mM (inactive)
66 | N=C1/C(=C\c2ccccc2)C(=O)N=C2SC=NN12 | > 4 mM (inactive)
67 | CCOC(=O)c1ccc2c(c1)nnn2C | > 4 mM (inactive)
68 | O=C1CCCCCN1CO | > 4 mM (inactive)
69 | NC(=O)C1CCN(CN2C(=O)c3ccccc3C2=O)CC1 | > 4 mM (inactive)

Row | Compound | Kd
70 | O=C(c1ccc(Cl)s1)N1CCOCC1 | > 4 mM (inactive)
71 | COC(=O)C1=C(C)N(Cc2ccco2)C(=O)C1 | > 4 mM (inactive)
72 | Cc1ccc(-c2nc(-c3cccnc3)no2)cc1 | > 4 mM (inactive)
73 | Nc1n[nH]c(=S)n1-c1ccccc1 | > 4 mM (inactive)
74 | CC1(C)C2CC(=O)[C@]3(C)C(CC[C@@]4(C)[C@H](c5ccoc5)OC(=O)[C@H]5O[C@]543)[C@@]2(C)C(=O)C[C@H]1O (some centres undefined) | > 4 mM (inactive)
75 | CC1=[N+]([O-])C2(N)CCc3c(no[n+]3[O-])C2(O)C1 (centres undefined) | > 4 mM (inactive)
76 | CN1CCN(c2ncnc3nc[nH]c23)CC1 | > 4 mM (inactive)
77 | Cc1nc2ccc(NC(=O)N3CCSCC3)cc2s1 | > 4 mM (inactive)
78 | O=C(NCc1cccc(Cl)c1)c1cccnc1 | > 4 mM (inactive)
79 | NCc1ccc2sccc2c1 | > 4 mM (inactive)
80 | Cc1nc(N)sc1C(=O)Nc1nccs1 | > 4 mM (inactive)
81 | CN1CCN(CC(=O)N2CCc3ccccc32)CC1 | > 4 mM (inactive)
82 | COc1cccc(NC(=O)c2ocnc2C)c1 | > 4 mM (inactive)
83 | Cc1cc(=O)n(CCc2ccccc2)c(O)c1C#N | > 4 mM (inactive)
84 | NC1=NC(=O)C(CC(=O)Nc2ccccc2F)S1 (centres undefined) | > 4 mM (inactive)
85 | Cc1nc2ccccc2c(=O)n1CCCO | > 4 mM (inactive)
86 | CC(=O)O[C@H]1C(=O)[C@@]2(C)C([C@H](OC(=O)c3ccccc3)[C@]3(O)C[C@H](OC(=O)[C@H](O)[C@@H](NC(=O)c4ccccc4)c4ccccc4)C(C)=C1C3(C)C)[C@]1(OC(C)=O)CO[C@@H]1C[C@@H]2O (some centres undefined) | > 4 mM (inactive)
87 | NCc1cccc2nsnc12 | > 4 mM (inactive)
88 | C=C(C)[C@@H]1CC[C@]2(CO)CC[C@]3(C)[C@H](CCC4[C@@]5(C)CC[C@H](O)C(C)(C)C5CC[C@]43C)C12 (some centres undefined) | > 4 mM (inactive)
89 | CC(=O)Nc1ccc(C(=O)N2CCOCC2)cc1Cl | > 4 mM (inactive)
90 | CCc1nnc(NC(C)=O)s1 | > 4 mM (inactive)
91 | CCc1ccccc1OCc1nnc(N)s1 | > 4 mM (inactive)
92 | CCn1ncc(Cl)c1C(=O)Nc1ccncc1 | > 4 mM (inactive)

Row | Compound | Kd
93 | COc1ccccc1C(=O)Nc1ccccn1 | > 4 mM (inactive)
94 | Cc1cc(=O)oc2c1c(C)nn2CN1CCN(C)CC1 | > 4 mM (inactive)
95 | NC(=O)C1CCN(C(=O)c2ccccc2)CC1 | > 4 mM (inactive)
96 | Fc1ccc(-c2n[nH]c(=S)n2CC2CCCO2)cc1 (centres undefined) | > 4 mM (inactive)
97 | Cn1ccc(NC(=S)Nc2cccc([N+](=O)[O-])c2)n1 | > 4 mM (inactive)
98 | O=C(/C=C/c1ccco1)NC1=NCCS1 | > 4 mM (inactive)
99 | O=c1[nH]cc(S(=O)(=O)Nc2ccccc2)c(=O)[nH]1 | > 4 mM (inactive)
100 | Oc1ccc(-n2ccnc2)cc1 | > 4 mM (inactive)
101 | c1n[nH]cc1-c1cn[nH]c1 | > 4 mM (inactive)
102 | COc1cc(CNC(=O)CCCC/C=C/C(C)C)ccc1O | > 4 mM (inactive)
103 | OCc1cc(F)cc2c1OCOC2 | > 4 mM (inactive)
104 | O=C(NC(=S)NC1CCS(=O)(=O)C1)c1ccccc1 (centres undefined) | > 4 mM (inactive)
105 | CC(NC(=O)c1cccnc1)c1ccc2c(c1)OCO2 (centres undefined) | > 4 mM (inactive)
106 | O=C(Cc1ccccc1)Nc1c[nH]c(=O)[nH]c1=O | > 4 mM (inactive)
107 | CC1=CC(=O)CC(C)(C)C1(O)/C=C/C(C)=C\C(=O)O (centres undefined) | > 4 mM (inactive)
108 | c1ccc(CSc2ncccn2)cc1 | > 4 mM (inactive)
109 | Cc1cc(C(=O)N2CCN(c3ncccn3)CC2)cs1 | > 4 mM (inactive)
110 | CCSc1n[nH]c(=O)[nH]c1=O | > 4 mM (inactive)
111 | CC(=O)N1CCN(C2CCSC2)CC1 (centres undefined) | > 4 mM (inactive)
112 | NCc1cccc(-n2cccc2)c1 | > 4 mM (inactive)
113 | NC(=O)c1ccc(Cl)c(N2C(=O)CCC2=O)c1 | > 4 mM (inactive)
114 | Cc1ccc(C)n1-c1ccc(C(=O)N2CCOCC2)cc1 | > 4 mM (inactive)
